Data from ChEMBL document CHEMBL2010673, “Structure-activity relationship of pyrrole based S-nitrosoglutathione reductase inhibitors: carboxamide modification” (Bioorg Med Chem Lett, 2012).

Key:
[1] = Inhibition of Smt-tagged S-nitrosoglutathione reductase expressed in Escherichia coli using […] as substrate for 3 mins by spectrophotometric analysis
A549 = experiment: Cytotoxicity against human A549 cells after 48 hrs by MTS assay; type: cell-based; details: A549, 48 h
[2] = Oral bioavailability in BALB/c mouse at 10 mg/kg by LC-MS/MS analysis; type: ADME, organism-based; details: in vivo
[3] = Plasma clearance in BALB/c mouse at 2 mg/kg, iv by LC-MS/MS analysis; type: ADME, organism-based; set-up: dose 2 mg/kg, route intravenous

Compound | IC50 ([1]; read-out: IC50) [µM] | also measured
CCOC(=O)CCc1ccc(-c2ccc(OC)cc2)n1-c1ccc(C(=O)Nc2cccnc2)cc1C | 0.44 | 
CCOC(=O)CCc1ccc(-c2ccc(OC)cc2)n1-c1ccc(C(=O)N(C)C)cc1C | 1.31 | 
Cc1cc(NS(C)(=O)=O)ccc1-n1c(CCC(=O)O)ccc1-c1ccc(-n2ccnc2C)cc1 | 0.18 | 
CCOC(=O)CCc1ccc(-c2ccc(OC)cc2)n1-c1ccc(NS(N)(=O)=O)cc1C | 0.71 | 
Cc1nccn1-c1ccc(-c2ccc(CCC(=O)O)n2-c2ccc(O)cc2)s1 | 0.036 | IC50 (A549): > 150 µM; bioavailability [2]: 3.9%; clearance [3]: 1.43 L/h/kg
CCOC(=O)CCc1ccc(-c2ccc(OC)cc2)n1-c1ccc(NC(C)=O)cc1 | 3.27 | 
CCOC(=O)CCc1ccc(-c2ccc(OC)cc2)n1-c1ccc(C(=O)Nc2ccnnc2)cc1C | 0.64 | 
Cc1cc(CN)ccc1-n1c(CCC(=O)O)ccc1-c1ccc(-n2ccnc2)cc1 | 1.59 | 
COCC(=O)Nc1ccc(-n2c(CCC(=O)O)ccc2-c2ccc(-n3ccnc3)cc2)c(C)c1 | 0.096 | 
CCOC(=O)CCc1ccc(-c2ccc(OC)cc2)n1-c1ccc(C(=O)NCCO)cc1C | 0.66 | 
CC(=O)Nc1ccc(-n2c(CCC(=O)O)ccc2-c2ccc(-n3ccnc3)cc2)c(C)c1 | 0.056 | 
CCOC(=O)CCc1ccc(-c2ccc(OC)cc2)n1-c1ccc(OC)cc1 | 1.02 | 
CCOC(=O)CCc1ccc(-c2ccc(OC)cc2)n1-c1ccc(C(N)=O)cc1 | 0.46 | 
CCOC(=O)CCc1ccc(-c2ccc(OC)cc2)n1-c1ccc(C)cc1C | 8.84 | 
CCOC(=O)CCc1ccc(-c2ccc(OC)cc2)n1-c1ccc(O)cc1 | 0.24 | 
O=C(O)CCc1ccc(-c2ccc(-n3ccnc3)s2)n1-c1ccc(O)cc1 | 0.032 | 
CCOC(=O)CCc1ccc(-c2ccc(Br)cc2)n1-c1ccc(C(=O)Nc2ccncc2)cc1C | 0.061 | 
CC(=O)Nc1ccc(-n2c(CCC(=O)O)ccc2-c2ccc(-n3ccnc3C)cc2)cc1 | 3.89 | 
CCC(=O)Nc1ccc(-n2c(CCC(=O)O)ccc2-c2ccc(-n3ccnc3)cc2)c(C)c1 | 0.088 | 
Cc1nccn1-c1ccc(-c2ccc(CCC(=O)O)n2-c2ccc(O)cc2)cc1 | 0.054 | 
CCOC(=O)CCc1ccc(-c2ccc(OC)cc2)n1-c1ccc(C(=O)Nc2cncnc2)cc1C | 3.74 | 
Cc1nccn1-c1cc(-c2ccc(CCC(=O)O)n2-c2ccc(O)cc2)cs1 | 0.045 | 
CCOC(=O)CCc1ccc(-c2ccc(OC)cc2)n1-c1ccc(C(=O)NC)cc1C | 2.41 | 

Compound | IC50 ([1]; read-out: IC50) [µM] | also measured
CCOC(=O)CCc1ccc(-c2ccc(OC)cc2)n1-c1ccc(C(=O)Nc2ccncc2)cc1C | 0.17 | 
O=C(O)CCc1ccc(-c2ccc(-n3ccnc3)cc2)n1-c1ccc(O)cc1 | 0.039 | bioavailability [2]: 6.8%; clearance [3]: 2.23 L/h/kg
Cc1cc(O)ccc1-n1c(CCC(=O)O)ccc1-c1ccc(-n2ccnc2)cc1 | 0.18 | 
Cc1nccn1-c1csc(-c2ccc(CCC(=O)O)n2-c2ccc(O)cc2)c1 | 0.096 | 
CCOC(=O)CCc1ccc(-c2ccc(OC)cc2)n1-c1ccc(C(C)=O)cc1 | 0.96 | 
Cc1cc(NS(C)(=O)=O)ccc1-n1c(CCC(=O)O)ccc1-c1cc(-n2ccnc2C)cs1 | 0.076 | IC50 (A549): > 150 µM
Cc1nccn1-c1ccc(-c2ccc(CCC(=O)O)n2-c2ccc(NS(C)(=O)=O)cc2)cc1 | 1.79 | 
CCOC(=O)CCc1ccc(-c2ccc(OC)cc2)n1-c1ccc(S(N)(=O)=O)cc1C | 0.33 | 
Cc1cc(C(=O)O)ccc1-n1c(CCC(=O)O)ccc1-c1ccc(-n2ccnc2)cc1 | 0.11 | 
Cc1cc(S(N)(=O)=O)ccc1-n1c(CCC(=O)O)ccc1-c1ccc(-n2ccnc2C)s1 | 0.022 | IC50 (A549): > 150 µM
CCOC(=O)CCc1ccc(-c2ccc(OC)cc2)n1-c1ccc(OC)cc1C | 1.8 | 
CCOC(=O)CCc1ccc(-c2ccc(OC)cc2)n1-c1ccc(Br)cc1 | 3.25 | 
Cc1nccn1-c1ccc(-c2ccc(CCC(=O)O)n2-c2ccc(S(N)(=O)=O)cc2)s1 | 0.023 | IC50 (A549): > 150 µM
Cc1nccn1-c1csc(-c2ccc(CCC(=O)O)n2-c2ccc(NS(C)(=O)=O)cc2)c1 | 0.36 | 
CC(=O)Nc1ccc(-n2c(CCC(=O)O)ccc2-c2ccc(-n3ccnc3C)cc2)c(C)c1 | 0.45 | 
CCOC(=O)CCc1ccc(-c2ccc(OC)cc2)n1-c1ccc(CC(N)=O)cc1 |  | IC50 [1]: Not Active
CCOC(=O)CCc1ccc(-c2ccc(OC)cc2)n1-c1ccc(O)cc1C | 1.55 | 
CCOC(=O)CCc1ccc(-c2ccc(OC)cc2)n1-c1ccc(C(=O)NC)cc1 | 4.56 | 
CCOC(=O)CCc1ccc(-c2ccc(OC)cc2)n1-c1ccc(NC(N)=O)cc1 | 4.8 | 
CCOC(=O)CCc1ccc(-c2ccc(OC)cc2)n1-c1ccc(C(=O)NCCOC)cc1C | 0.73 | 
CC(=O)Nc1ccc(-n2c(CCC(=O)O)ccc2-c2cc(-n3ccnc3C)cs2)cc1 | 0.14 | 
Cc1cc(N)ccc1-n1c(CCC(=O)O)ccc1-c1ccc(-n2ccnc2)cc1 | 1.41 | 
